Where two headings read alike, the source gives them in different places.

As usually defined, the IC50 is the concentration needed to halve the response being measured.

One assay has as its target T1, ADMP (ADAMTS-4-5) (Homo sapiens, UniProt O75173).
T1 construct: purchased Calbiochem PF113
T1 sequence (O75173 213-837): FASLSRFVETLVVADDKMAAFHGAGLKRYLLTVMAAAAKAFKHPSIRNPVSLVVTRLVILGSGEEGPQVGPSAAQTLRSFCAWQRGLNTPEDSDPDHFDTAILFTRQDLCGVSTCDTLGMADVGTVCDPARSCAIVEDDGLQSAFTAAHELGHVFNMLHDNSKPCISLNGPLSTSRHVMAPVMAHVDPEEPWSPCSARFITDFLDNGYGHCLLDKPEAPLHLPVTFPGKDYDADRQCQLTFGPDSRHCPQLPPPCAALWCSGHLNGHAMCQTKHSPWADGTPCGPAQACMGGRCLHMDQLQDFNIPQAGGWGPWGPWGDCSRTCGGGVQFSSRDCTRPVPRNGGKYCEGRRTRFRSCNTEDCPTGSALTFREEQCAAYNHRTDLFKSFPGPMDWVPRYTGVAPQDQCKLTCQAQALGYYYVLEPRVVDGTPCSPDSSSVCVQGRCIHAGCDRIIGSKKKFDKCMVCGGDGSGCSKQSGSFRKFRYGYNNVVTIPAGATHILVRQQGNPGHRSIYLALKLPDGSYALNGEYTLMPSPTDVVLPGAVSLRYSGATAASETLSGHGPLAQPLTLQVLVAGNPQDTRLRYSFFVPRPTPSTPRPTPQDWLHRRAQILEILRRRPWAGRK
The assay can be described thus: ADMP activity assay (procedures of WO00/05256). Type of assay: biochemical. From the text: The procedures of International Patent Publication WO00/05256 (published Feb. 3, 2000) were followed for detection of ADMP Activity and for measuring the IC50 of the compounds of the present invention. This was indicative of activity against a desintgrin and metallopropeinase thrombo spondin 4 and 5 (ADAMTS-4-5).
The enzyme was purchased commercially from Calbiochem (Cat# PF113) and the peptide substrate described in the patent was custom-ordered from AnaSpec.

For another assay, the system named is LpxC enzyme. The assay can be described thus: LpxC enzyme assay (RapidFire high-throughput mass spectrometry). Format: biochemical. The essentials: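 0.2 nM enzyme with 1.0 μM UDP-3-O-(R-3-hydroxymyristoyl)-N-acetylglucosamine in 25 mM HEPES pH 7.3, 150 mM NaCl, 2.0 mM DTT, 0.01% BSA, 2% DMSO; 60 min at room temperature, quenched with HCl. Substrate and product quantified by RapidFire mass spectrometry; percent conversion gives percent inhibition versus DMSO control.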

[1] abbreviates: read-out: IC50 rating (ADMP inhibitory activity).
Where [2] appears, read: read-out: IC50 (ADMP inhibition).
Where [3] appears, read: concentration 0.10 (unit not given).
The mark [4] stands for this setting: concentration 0.20 (unit not given).
Setting [5] is: concentration 0.39 (unit not given).
The mark [6] stands for this setting: concentration 0.78 (unit not given).
The mark [7] stands for this setting: concentration 1.56 (unit not given).
The mark [8] stands for this setting: concentration 3.13 (unit not given).
Where [9] appears, read: concentration 6.25 (unit not given).
The mark [10] stands for this setting: concentration 12.50 (unit not given).
Setting [11] is: concentration 25 (unit not given).
The mark [12] stands for this setting: concentration 50 (unit not given).

On to `C[C@H](NC(=O)[C@H](O)[C@@H](O)C(=O)N(C)Cc1cc(Cl)cc(Cl)c1)c1ccc(Br)cc1` [Compound 139], for which the IC50 at ADMP (ADAMTS-4-5) (setting [1]) lay within 250 to 1000 nM. Turning to `C[C@H](NC(=O)[C@H](O)[C@@H](O)C(=O)N1CCN(c2ccc(O)cc2)CC1)c1ccc(Br)cc1` [Compound 150], the IC50 on ADMP (ADAMTS-4-5) (setting [1]) was 1000 to 5000 nM. On to `COc1ccc(N2CCN(C(=O)[C@H](O)[C@@H](O)C(=O)N[C@@H](C)c3ccc(Br)cc3)CC2)cc1` [Compound 130], for which the IC50 was 170 nM on ADMP (ADAMTS-4-5) (setting [2]) and less than 250 nM on ADMP (ADAMTS-4-5) (setting [1]). Regarding `N[C@@H]1CCN(C(=O)[C@H](O)[C@@H](O)C(=O)NCc2ccc(C(F)(F)F)cc2)C1` [Compound 123], on ADMP (ADAMTS-4-5) (setting [1]), the IC50 fell in the range of 1000 to 5000 nM. With `O=C(NCc1cccc(Br)c1)[C@@H](O)[C@H](O)C(=O)N1CCc2ccccc2C1` [Compound 185], at ADMP (ADAMTS-4-5) (setting [1]), the IC50 was more than 5000 nM.

As for `Cc1ccc(N2CCN(C(=O)[C@H](O)[C@@H](O)C(=O)N[C@@H](C)c3ccc(Br)cc3)CC2)cc1C` [Compound 142], on ADMP (ADAMTS-4-5) (setting [1]), the IC50 fell in the range of 250 to 1000 nM. Same read-out and setting: the value for `CN(CCc1ccccn1)C(=O)[C@H](O)[C@@H](O)C(=O)NCc1ccc(Cl)cc1` [Compound 113] was 250 to 1000 nM; that for `C[C@H](NC(=O)[C@H](O)[C@@H](O)C(=O)N1CCC2(CCCNC2)CC1)c1ccc(Br)cc1` [Compound 158] was more than 5000 nM. Regarding `C[C@H](NC(=O)[C@H](O)[C@@H](O)C(=O)N(C)CCc1ccccc1)c1ccc(Br)cc1` [Compound 176], on ADMP (ADAMTS-4-5) (setting [1]), the IC50 lay within 250 to 1000 nM. Same read-out and setting: with `C[C@H](NC(=O)[C@H](O)[C@@H](O)C(=O)N1CCC(c2nc3ccccc3s2)CC1)c1ccc(Br)cc1` [Compound 151] the figure was less than 250 nM; with `C[C@H](NC(=O)C(O)C(O)C(=O)N1CCc2ccccc2C1)c1ccc(I)cc1` (stereo in doubt) [Compound 210], 250 to 1000 nM. The same measure, in the same setting: the value for `C[C@H](NC(=O)C(O)C(O)C(=O)N1Cc2ccccc2C1)c1cccc(O)c1` (stereo partly shown) [Compound 217] was 1000 to 5000 nM; that for `C[C@H](NC(=O)C(O)C(O)C(=O)N1Cc2ccccc2C1)c1ccc(O)cc1` (stereo partly shown) [Compound 216] was less than 250 nM. On the same count and under the same terms, the value for `O=C(NCc1ccc(C(F)(F)F)cc1)[C@H](O)[C@@H](O)C(=O)N1CCN(c2cccc(Cl)c2)CC1` [Compound 111] was 250 to 1000 nM. With `O=C(NCc1cccc(I)c1)C(O)C(O)C(=O)N1CCc2ccccc2C1` (stereo not shown) [Compound 212], the IC50 at ADMP (ADAMTS-4-5) (setting [1]) is more than 5000 nM. Same read-out and setting: with `O=C(NCc1ccc(C(F)(F)F)cc1)[C@H](O)[C@@H](O)C(=O)N1CCc2ccccc2C1` [Compound 180] the figure was 250 to 1000 nM; with `CN(Cc1ccccc1)C(=O)[C@H](O)[C@@H](O)C(=O)NCc1ccc(Cl)cc1` [Compound 110], 250 to 1000 nM. Molecule `CC(=O)C1(c2ccccc2)CCN(C(=O)[C@H](O)[C@@H](O)C(=O)N[C@@H](C)c2ccc(Br)cc2)CC1` [Compound 133] displayed an IC50 on ADMP (ADAMTS-4-5) of less than 250 nM. With `C[C@H](NC(=O)C(O)C(O)C(=O)N1CCc2ccccc2C1)c1cccc(Br)c1` (stereo partly shown) [Compound 218], on ADMP (ADAMTS-4-5) (setting [1]), the half-inhibitory concentration (IC50) is more than 5000 nM. The same measure, in the same setting: the value for `C[C@H](NC(=O)[C@H](O)[C@@H](O)C(=O)N1CCC2(CC1)C(=O)Nc1ccccc12)c1ccc(Br)cc1` [Compound 152] was 1000 to 5000 nM; that for `C[C@H](NC(=O)C(O)C(O)C(=O)N1CCc2ccccc2C1)c1cccc(I)c1` (stereo partly shown) [Compound 219] was 1000 to 5000 nM. On the same count and under the same terms, the value for `CN(C)CCN(C)C(=O)[C@H](O)[C@@H](O)C(=O)NCc1ccc(C(F)(F)F)cc1` [Compound 127] was more than 5000 nM; that for `C[C@H](NC(=O)[C@H](O)[C@@H](O)C(=O)N1CCc2ccccc2C1)c1ccc(-c2ccc(O)cc2)cc1` [Compound 200] was less than 250 nM. For `O=C(NCc1ccc(Br)cc1)[C@H](O)[C@@H](O)C(=O)N1CCc2ccccc2C1` [Compound 184], the IC50 at ADMP (ADAMTS-4-5) (setting [1]) fell in the range of 250 to 1000 nM.

For `C[C@H](NC(=O)[C@H](O)[C@@H](O)C(=O)N1CCC(Oc2ccccc2)CC1)c1ccc(Br)cc1` [Compound 149], the IC50 at ADMP (ADAMTS-4-5) (setting [2]) was 90 nM; on ADMP (ADAMTS-4-5) (setting [1]), less than 250 nM. Turning to `CN(C(=O)[C@H](O)[C@@H](O)C(=O)NCc1ccc(C(F)(F)F)cc1)C1CCCCC1` [Compound 125], the IC50 on ADMP (ADAMTS-4-5) (setting [1]) is 250 to 1000 nM. In the case of `O=C(NCc1cccc(I)c1)[C@H](O)[C@@H](O)C(=O)N1CCc2ccccc2C1` [Compound 181], the IC50 on ADMP (ADAMTS-4-5) (setting [1]) was more than 5000 nM. Same read-out and setting: with `O=C(NCCCCCn1c(C(F)(F)F)nc2ccccc21)C(O)C(O)C(=O)N1CCc2ccccc2C1` (stereo not shown) [Compound 221] the figure was more than 5000 nM.

On to `O=C(NCc1cccc(Br)c1)C(O)C(O)C(=O)N1CCc2ccccc2C1` (stereo not shown) [Compound 211], for which the IC50 on ADMP (ADAMTS-4-5) (setting [1]) was more than 5000 nM.

Take `CN(C)C(=O)[C@H](O)[C@@H](O)C(=O)n1ccc2cc(C#Cc3ccccc3)ccc21` [Compound 44]: the “LpxC enzyme assay rating (% inhibition at indicated concentrations)” value with LpxC enzyme (setting [3]) is listed as “C (less than 10% inhibition)”; with LpxC enzyme (setting [4]), “B (10-30% inhibition)”; in the assay on LpxC enzyme (setting [5]), “C (less than 10% inhibition)”; in the assay with LpxC enzyme (setting [6]) it was “C (less than 10% inhibition)”; with LpxC enzyme (setting [7]) it was “C (less than 10% inhibition)”; with LpxC enzyme (setting [8]) it was “B (10-30% inhibition)”. Further, the “LpxC enzyme assay rating (% inhibition at indicated concentrations)” value in the assay with LpxC enzyme (setting [9]) is recorded as “B (10-30% inhibition)”; with LpxC enzyme (setting [10]), “A (greater than 30% inhibition)”; with LpxC enzyme (setting [11]) it was “A (greater than 30% inhibition)”; in the assay on LpxC enzyme (setting [12]), “A (greater than 30% inhibition)”. As for `O=C(NCCCCl)[C@H](O)[C@@H](O)C(=O)Nc1ccc(C#Cc2ccccc2)cc1` [Compound 60], the “LpxC enzyme assay rating (% inhibition at indicated concentrations)” value was “C (less than 10% inhibition)” in the assay on LpxC enzyme (setting [3]); “C (less than 10% inhibition)” in the assay with LpxC enzyme (setting [4]); “B (10-30% inhibition)” in the assay on LpxC enzyme (setting [5]); “B (10-30% inhibition)” with LpxC enzyme (setting [6]); “C (less than 10% inhibition)” in the assay on LpxC enzyme (setting [7]); “B (10-30% inhibition)” with LpxC enzyme (setting [8]). For the same molecule, the “LpxC enzyme assay rating (% inhibition at indicated concentrations)” value with LpxC enzyme (setting [9]) was “B (10-30% inhibition)”; in the assay with LpxC enzyme (setting [10]), “B (10-30% inhibition)”; in the assay with LpxC enzyme (setting [11]) it was “C (less than 10% inhibition)”; with LpxC enzyme (setting [12]), “C (less than 10% inhibition)”.

`CCCc1ccc(NC(=O)[C@H](O)[C@@H](O)C(=O)NCCCCl)cc1` [Compound 61]: the “LpxC enzyme assay rating (% inhibition at indicated concentrations)” value in the assay on LpxC enzyme (setting [3]), in the assay with LpxC enzyme (setting [4]), with LpxC enzyme (setting [5]), in the assay on LpxC enzyme (setting [6]), in the assay with LpxC enzyme (setting [7]) and in the assay with LpxC enzyme (setting [8]) was “C (less than 10% inhibition)” throughout. In addition, the “LpxC enzyme assay rating (% inhibition at indicated concentrations)” value is “C (less than 10% inhibition)” in the assay with LpxC enzyme (setting [9]), “C (less than 10% inhibition)” in the assay with LpxC enzyme (setting [10]), “B (10-30% inhibition)” with LpxC enzyme (setting [11]) and “B (10-30% inhibition)” with LpxC enzyme (setting [12]).

Values taken from patent publication US7553864B2, “Compounds for the treatment of inflammatory disorders and microbial diseases” (Schering Corporation, priority 2005, dated 2009).
